Test results from BindingDB's records for doi:10.1016/j.ejmech.2019.01.017 (Qilu University of Technology (Shandong Academy of Sciences), 2019).

Biological target: RAC-beta serine/threonine-protein kinase (Homo sapiens, UniProt P31751)
Test: Inhibition of PKBbeta (unknown origin)

RAC-beta serine/threonine-protein kinase, sequence (P31751 whole entry): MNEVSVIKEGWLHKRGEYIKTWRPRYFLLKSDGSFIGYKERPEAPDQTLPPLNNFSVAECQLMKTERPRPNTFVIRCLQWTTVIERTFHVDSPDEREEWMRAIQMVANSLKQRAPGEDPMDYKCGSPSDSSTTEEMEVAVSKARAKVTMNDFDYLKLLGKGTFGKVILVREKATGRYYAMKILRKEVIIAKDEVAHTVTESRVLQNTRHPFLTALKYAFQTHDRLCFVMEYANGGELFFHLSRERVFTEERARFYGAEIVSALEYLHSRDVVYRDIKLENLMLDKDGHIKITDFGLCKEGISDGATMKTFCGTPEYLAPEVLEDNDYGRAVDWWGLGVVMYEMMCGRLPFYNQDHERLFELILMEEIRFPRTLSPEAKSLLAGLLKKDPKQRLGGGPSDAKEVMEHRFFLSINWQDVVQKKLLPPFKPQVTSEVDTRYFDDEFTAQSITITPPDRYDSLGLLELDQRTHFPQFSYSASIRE

Q: For `Cc1ccc2[nH]c(=O)c(C(=O)/C=C/c3nc4ccccc4[nH]3)c(-c3ccccc3)c2c1`, which IC50 is on record?
A: 1640 nM
